Laboratory results published in article PMC12676205, “New Se‐Compounds With Antileishmanial, Antitumor, and Carbonic Anhydrase Inhibitory Properties” (Archiv Der Pharmazie, 2025).
Read-outs that look alike come from different tables or passages of the source.

How the values were obtained:
Renal subpanel = test: NCI-60 five-dose assay, renal subpanel; format: cell-based; conditions: Homo sapiens, 48 h; for GI50: read-out: Mean GI50 Renal; for LC50: read-out: Mean LC50 Renal
Description: (§1) All the compounds were selected for further testing since they fulfilled the set NCI one‐dose screening parameters for threshold inhibition. They were tested at five different concentrations (0.01, 0.1, 1, 10, and 100 μM) for 48 h against the same cell line panel and the dose–response curves along with three response parameters (50% growth inhibitory concentration [GI50], the 50% lethal concentration [LC50], and the total growth inhibition [TGI]) were calculated for every cancer cell line. The full reported data and corresponding graphs are compiled in Supporting Information S1. Average values of GI50, TGI, and LC50 values of all the reported selenoesters in all the subpanels are represented in Figure 4.
(§2) All the reported selenoesters (1–6) were submitted to the DTP of NCI. First, they were screened at a single dose (10^−5 M) against a panel of 60 cancer cell lines derived from different tumor types following the methodology available (https://dtp.cancer.gov/discovery_development/nci-60/methodology.htm). As all the compounds satisfied the threshold inhibition criteria established, they were further assessed at five concentrations (0.01, 0.1, 1, 10, and 100 µM) against the same cell panel to obtain their corresponding dose–response curves and three antitumor parameters (GI50, TGI, and LC50) by regression. GraphPad Prism 7.0 Software was used to represent the corresponding graphs.

HaCaT cells = test: MTS cell viability assay in nonmalignant HaCaT cells; format: cell-based, human; conditions: 48 h, mean ± SD
Description: (MTS) assay as previously described. Thus, the selenoesters were tested at seven different concentrations (1, 2.5, 5, 10, 25, 50, and 100 µM) during 48 h to determine their corresponding IC50 values.
The effect of each compound on the cell viability of HaCaT cells was tested using the MTS assay. The compounds (1–6) were dissolved in DMSO at a concentration of 10^−2 M, and serial dilutions were prepared. Briefly, the cells were seeded in a 96‐well plate at a density of 1 × 10^4 cells per well. After 24 h of incubation, the cells were treated with either DMSO or seven different concentrations of each selenoester (1, 2.5, 5, 10, 25, 50, and 100 µM) for 48 h in triplicate. At the end of the treatment duration, the media were removed and fresh media were added containing 20 μL of MTS (Promega, USA) per well. After 1 h incubation, the absorbances were read at a wavelength of 490 nm in a 96‐well multiscanner, and the ratio of viable cells was calculated. Data were obtained from at least three independent experiments performed in triplicate. The IC50 values were calculated using OriginPro 8.5.1 Software for nonlinear curve fitting, and Graphpad Prism 7.0 Software was used to represent the corresponding graphs.

Breast subpanel [1] = test: NCI-60 one-dose screen, breast subpanel; format: cell-based, human; conditions: 10 µM, 48 h
Description: (§3) To explore the potential antiproliferative properties of the newly synthesized derivatives, they were submitted to the National Cancer Institute's (NCI) Developmental Therapeutics Program (DTP) for screening at 10 μM in a panel of approximately 60 human cancer cell lines from different cancer types. The results are reported as the growth percentage (GP), which is the growth of the treated cells with each compound for 48 h compared to the untreated controls (Figure 2). […] The initial screening results are summarized in Figure 2, and the mean GP values of each subpanel are depicted in Figure 3. The full reports are compiled in the Supplementary Section.
as §2

[2] = test system: NSCL (non‐small‐cell lung cancer) subpanel; test: NCI-60 five-dose assay, NSCL subpanel; format: cell-based; conditions: Homo sapiens, 48 h; for GI50: read-out: Mean GI50 NSCL; for LC50 (50% lethal concentration): read-out: Mean LC50 NSCL
Description: as §1, §2

Ovarian subpanel = test: NCI-60 five-dose assay, ovarian subpanel; format: cell-based; conditions: Homo sapiens, 48 h; for GI50: read-out: Mean GI50 Ovarian; for LC50 (50% lethal concentration): read-out: Mean LC50 Ovarian
Description: as §1, §2

CNS subpanel = test: NCI-60 one-dose screen, CNS subpanel; format: cell-based, human; conditions: 10 µM, 48 h
Description: as §3, §2

Leukemia subpanel [3] = test: NCI-60 one-dose screen, leukemia subpanel; format: cell-based, human; conditions: 10 µM, 48 h
Description: as §3, §2

Breast subpanel [4] = test: NCI-60 five-dose assay, breast subpanel; format: cell-based; conditions: Homo sapiens, 48 h; for GI50: read-out: Mean GI50 Breast; for LC50: read-out: Mean LC50 Breast
Description: as §1, §2

Leukemia subpanel [5] = test: NCI-60 five-dose assay, leukemia subpanel; format: cell-based; conditions: Homo sapiens, 48 h; for GI50: read-out: Mean GI50 Leukemia; for CC50: read-out: Mean LC50 Leukemia
Description: as §1, §2

Prostate subpanel = test: NCI-60 one-dose screen, prostate subpanel; format: cell-based, human; conditions: 10 µM, 48 h
Description: as §3, §2

[6] = test system: NCI‐60 human cancer cell lines; test: NCI-60 one-dose screen, whole panel; format: cell-based; conditions: 10 µM, 48 h, whole NCI-60 panel
Description: as §3, §2

L. major promastigotes = test: Leishmanicidal activity against promastigotes (MTT), L. major; format: cell-based, Leishmania major
Description: The synthesized compounds were tested for their antileishmanial activity against promastigotes of L. major and L. infantum at four concentrations (1, 10, 50, and 100 µM) for 48 h using the 3‐(4,5‐dimethylthiazol‐2‐yl)‐2,5‐diphenyltetrazolium bromide (MTT) assay. In this evaluation, the activity was expressed in IC50 (concentration inhibiting the parasite growth by 50%). […] The CC50 was defined as the concentration of selenoesters that led to a reduction in the viability of the macrophages, such that only 50% of the cells survived when compared to the control group. This cell line, derived from the blood of a human with acute monocytic leukemia, was chosen as it has been widely reported that it resembles tissue macrophages to various extents as well as supports the infection by numerous Leishmania promastigotes. The selectivity indexes (SIs) were calculated as the ratio between toxicity on macrophages (THP‐1 cells)/antileishmanial activity. The data for standard control drugs (miltefosine and paromomycin) are included for comparison purposes.
The promastigotes of L. major (clone VI, MHOM/IL/80/Friendlin) and L. infantum (BCN‐150) were grown at 26°C under continuous shaking in M199 1× medium (Sigma, USA). This media was supplemented with 10% of heat‐inactivated fetal bovine serum (FBS) (Gibco, USA), 0.0005% (w/v) hemin, 0.1 mM adenine, 25 mM HEPES (pH 7.2), 0.0001% (w/v) biotin, and 100 UI/mL penicillin and […] streptomycin (Gibco, USA).
The antileishmanial activity of the reported selenoesters was determined using the MTT assay as previously described during the logarithmic growth phase of the tested promastigotes of L. major and L. infantum. Briefly, the Leishmania parasites were seeded into 96‐well flat‐bottom plates (3 × 10^5 parasites/100 µL) and treated with four different concentrations ranging between 1 and 100 µM of each selenoester at 26°C for 48 h. Afterwards, 20 µL of MTT (5 mg/mL in PBS) was added to each well and incubated for 4 h under the same conditions. Then, 80 µL/well of DMSO was added to dissolve the resultant formazan crystals. The absorbances were determined on a Multiskan EX photometric plate reader for microplates at 540 nm. Three independent experiments performed in triplicate were carried out for each compound, and OriginPro 8.5.1 Software was used to calculate the IC50 values by fitting the data to a dose–inhibition sigmoid curve.

[7] = Leishmania major, 48 h, mean ± SD, read-out: L. major IC50
[8] = 48 h, mean ± SD, read-out: L. major IC50
[9] = read-out: L. major IC50, 48 h, mean ± SD

| SMILES | GI50 (Renal subpanel) | LC50 (Renal subpanel) | IC50 (HaCaT cells; Homo sapiens, HaCaT) | average growth cell value, Breast (Breast subpanel [1]) | GI50 [2] | LC50 (50% lethal concentration) [2] | GI50 (Ovarian subpanel) | LC50 (50% lethal concentration) (Ovarian subpanel) | average growth cell value, CNS (CNS subpanel) | average growth cell value, Leukemia (Leukemia subpanel [3]) | GI50 (Breast subpanel [4]) | LC50 (Breast subpanel [4]) | GI50 (Leukemia subpanel [5]) | CC50 (Leukemia subpanel [5]) | average growth cell value, Prostate (Prostate subpanel) | mean GP (growth percentage) [6] | IC50 (L. major promastigotes; [7]) | IC50 (L. major promastigotes; [8]) | IC50 (L. major promastigotes; [9]) | IC50 (HaCaT cells) |
| --- | --- | --- | --- | --- | --- | --- | --- | --- | --- | --- | --- | --- | --- | --- | --- | --- | --- | --- | --- | --- |
| O=C(C[Se]C(=O)c1ccccc1)Nc1ccc([N+](=O)[O-])c(C(F)(F)F)c1 [Compound 2, Se‐(2‐((4‐nitro‐3‐(trifluoromethyl)phenyl)amino)‐2‐oxoethyl)benzoselenoate] | 1.38 µM | 5.2 µM | 9.49 ± 0.42 µM | -83.18% | 1.41 µM | 5.36 µM | 1.57 µM | 5.83 µM | -94.42% | -94.69% | 1.48 µM | 7.68 µM | 0.9 µM | 4.34 µM | -94.40% | −91.96% | 27.1 ± 3.35 µM | – | – | – |
| O=C(C[Se]C(=O)c1ccco1)Nc1cccc(OC(F)(F)F)c1 [Compound 6, Se‐(2‐oxo‐2‐((3‐(trifluoromethoxy)phenyl)amino)ethyl)furan‐2‐carboselenoate] | 5.62 µM | – | – | -10.87% | 3.64 µM | – | 8.37 µM | – | -34.28% | 39.71% | 3.08 µM | – | 6.45 µM | > 100 µM | -15.23% | – | 6 to 10 µM | 10.1 ± 1.27 µM | < 10 µM | – |
| O=C(C[Se]C(=O)c1ccco1)Nc1ccc([N+](=O)[O-])c(C(F)(F)F)c1 [Compound 5, Se‐(2‐((4‐nitro‐3‐(trifluoromethyl)phenyl)amino)‐2‐oxoethyl)furan‐2‐carboselenoate] | 2.2 µM | – | – | -28.95% | 1.9 µM | – | 2.28 µM | – | -59.61% | 6.59% | 2.01 µM | – | 2.51 µM | > 100 µM | -27.89% | – | 18.3 ± 5.9 µM | – | – | – |
| N#Cc1ccc(NC(=O)C[Se]C(=O)c2ccccc2)cc1C(F)(F)F [Compound 1, Se‐(2‐((4‐cyano‐3‐(trifluoromethyl)phenyl)amino)‐2‐oxoethyl)benzoselenoate] | 1.57 µM | 6.11 µM | 11.8 ± 1.89 µM | -86.92% | 1.54 µM | 5.61 µM | 1.77 µM | 6.4 µM | -94.57% | -96.53% | 1.61 µM | 8.02 µM | 1.01 µM | 4.36 µM | -95.47% | −94.16% | 26.6 ± 1.81 µM | – | – | – |
| O=C(C[Se]C(=O)c1ccccc1)Nc1cccc(OC(F)(F)F)c1 [Compound 3, Se‐(2‐oxo‐2‐((3‐(trifluoromethoxy)phenyl)amino)ethyl)benzoselenoate] | 2.33 µM | 15.4 µM | ~64 µM | -45.08% | 2.3 µM | 13.2 µM | 2.45 µM | 18.2 µM | -78.56% | -36.81% | 2.62 µM | 22.6 µM | 3.06 µM | 19.6 µM | -48.28% | −43.99% | 6 to 10 µM | 9.67 ± 0.78 µM | < 10 µM | 63.7 ± 4.32 µM |
